The values below come from patent US20070021359A1, “Addition salts of azithromycin and citric acid and process for preparing them” (priority 2003, published 2007).

Series [1] in a line: solubility in water / aqueous solutions. In kind it is physicochemical. The conditions noted are these: aqueous solution, ambient temperature. The text has this:
The azithromycin citrate of the invention provides aqueous solutions up to 65% (w/w) at ambient temperature, with a pH between 6.8 and 7.5. The new addition salts of azithromycin and citric acid of the invention are particularly useful in the preparation of aqueous or water-alcohol solutions of azitromycin containing up to 65% of the salt, providing a pH between 4 and 8, stable and not suffering from chemical degradation of azithromycin.

The conditions of series [2]: cited from earlier work.
For series [3] the following is noted: cited from earlier work. This is another data set of the same source.

With azithromycin citrate, the “concentration of aqueous solutions provided” value in series [1] is “up to 65 % (w/w)”.
As to `CC[C@H]1OC(=O)[C@H](C)[C@@H](O[C@H]2C[C@@](C)(OC)[C@@H](O)[C@H](C)O2)[C@H](C)[C@@H](O[C@@H]2O[C@H](C)C[C@H](N(C)C)[C@H]2O)[C@](C)(O)C[C@@H](C)CN(C)[C@H](C)[C@@H](O)[C@]1(C)O` [azithromycin, 9-deoxo-9a-aza-9a-methyl-9a-homoerythromycin A], the “stability in aqueous acid medium” value in series [2] was “not stable”. Moreover, the solubility in water entry in series [3] is “very insoluble”.
